How the values were obtained:
[1] = [^11C]-labeled, rats; cited from earlier work
[2] = system: bone marrow cells of Crlj:CD1(ICR) male mouse; assay: Micronucleus test; assay type: in vivo; details: single oral administration 250-2000 mg/kg, 24 and 48 hours
Procedure: In order to study mutagenicity (in vivo) of Compounds 3 and 7, induction of micronucleated polychromatic erythrocyte (hereinafter referred to as MNPCE) was examined using bone marrow cells of Crlj:CD1(ICR) male mouse.
0 mg/kg (negative control group), 250, 500, 1000 and 2000 mg/kg (test sample group) were set as doses for the test. Mice were sacrificed 24 and 48 hours after single oral administration, and bone marrow smear was prepared and observed. Further, a single dose of MMC at 2 mg/kg was abdominally administrated in positive control group, mice were sacrificed 24 hours after the administration, and then bone marrow smear was prepared and observed.
As statistical analysis, significance tests were conducted by Wilcoxon rank sum test for the appearance frequency of MNPCE and the ratio of polychromatic erythrocyte (hereinafter referred to as PCE) to the total red blood cell (hereinafter referred to as RBC) in each administration group concerning the test sample and positive control groups relative to the negative control group and concerning these groups relative to each other where the significance level was set to less than 5% and less than 1%, respectively.

[3] = system: Salmonella typhimurium TA100; assay: Reverse mutation test (Ames test), TA100; assay type: cell-based
Procedure: (§1) In order to examine gene mutagenicity of Compounds 3, 5 and 8, reverse mutation test using Salmonella typhimurium TA98 and TA100 (hereinafter referred to as Ames test) was conducted.
(§2) The test was conducted without addition of S9mix and with addition of S9mix. Dimethylsulfoxide (hereinafter referred to as DMSO) was used as a negative control. A positive control was 2-(2-furyl)-3-(5-nitro-2-furyl)acrylamide (hereinafter referred to as AF-2) in case S9mix was not added, and 2-aminoanthracene (hereinafter referred to as 2-AA) in case S9mix was added.
(§3) As a sample solution to be added to a test plate, each compound was dissolved in DMSO to prepare a solution at a concentration of 50 mg/mL, and further, each solution was diluted with DMSO to prepare a solution with 7 dosage (geometric ratio 3). As a sample solution for preparing a sample of positive control, when TA98 was used as a test strain without addition of S9mix, a solution of AF-2 (compound concentration: 1 μg/mL) in DMSO was prepared; when TA100 was used as a test strain without addition of S9mix, a solution of AF-2 (compound concentration: 0.1 μg/mL) in DMSO was prepared; when TA98 was used as a test strain with addition of S9mix, a solution of 2-AA (compound concentration: 5 μg/mL) in DMSO was prepared; and when TA100 was used as a test strain with addition of S9mix, a solution of 2-AA (compound concentration: 10 μg/mL) in DMSO was prepared.
(§4) After each sample solution to be examined and a test strain (TA98 or TA100) were mixed together so as to make the addition amount of each sample to be 0.1 mL/plate, the mixture was multilayered using soft agar on a medium of a test plate, and then incubated at 37° C. for 48 hours. Separately, after each sample solution to be examined, S9mix and a test strain were mixed together so as to make the addition amount of each sample to be 0.1 mL/plate, the mixture was multilayered using soft agar on a medium of a test plate, and then incubated at 37° C. for 48 hours. On the other hand, only DMSO was used as a sample solution to perform the same procedure as above for the negative control. […]

[4] = system: Salmonella typhimurium TA98; assay: Reverse mutation test (Ames test), TA98; assay type: cell-based
Procedure: as §1, §2, §3, §4

[5] = target: T1, aggregated Aβ (Aβ1-42) amyloid (Homo sapiens, UniProt P05067); assay: In vitro binding test: inhibition of [^125I]3′-I-BTA-0 binding to amyloid
T1 construct: Aβ1-42 (manufactured by Wako) was dissolved in phosphate buffer (pH 7.4); purchased Wako
Procedure: Affinity of the present compounds with amyloid was examined by the following in vitro binding tests.
The measured radioactivity level was defined as the background radioactivity level, and used in the calculation of the inhibition ratio (hereinafter referred to as BG).
(9) Using the radioactivity levels measured above in (7) and (8), the inhibition ratio was determined by the following formula (1).
A graph in which values converted by probit transformation from the obtained inhibition ratios were plotted relative to logarithms of concentrations of compounds for evaluation was prepared to obtain an approximate straight line by the least square method.

[6] = Partition coefficient based on the octanol extraction method; assay type: physicochemical; details: octanol / 10 mmol/L phosphate buffer (pH 7.4)
Procedure: Partition coefficients based on the octanol extraction method (hereinafter referred to as log Poctanol) were measured, which are generally known as an indicator of permeability of compounds through the blood-brain barrier (hereinafter referred to as BBB).
A diethyl ether solution of Compound 1 prepared in Example 3 (Example 8), a diethyl ether solution of Compound 2 prepared in Example 6 (Example 9), and a diethyl ether solution of [^123I]-IMPY prepared in Reference Example 1 (Comparative Example 4) were each diluted with 10 mg/mL ascorbic acid-containing physiological saline solution, and adjusted to a radioactive concentration of 20-30 MBq/mL. To 2 mL of octanol, 10 μL each of the prepared sample solutions was added, 2 mL of 10 mmol/L phosphate buffer (pH 7.4) was added, followed by stirring for 30 seconds. After the mixture was centrifuged with a low-speed centrifuge (2000 rpm×60 min.), the octanol layer and the water layer were sampled each in an amount of 1 mL, and subjected to measurement of radioactivity count with an autowell gamma system (Type: ARC-301B, manufactured by Aloka). Using the obtained radioactivity count, log Poctanol was calculated in accordance with the equation (2).
A diethyl ether solution (Example 20) of Compound 4 prepared in Example 16, a diethyl ether solution (Example 21) of Compound 6 prepared in Example 19, and a diethyl ether solution (Comparative Example 7) of [^123I]-IMPY were each diluted with a 10 mg/mL ascorbic acid-containing physiological saline solution to adjust to a radioactive concentration of 20-30 MBq/mL. To 2 mL of octanol, 10 μL each of the prepared sample solution was added, and 2 mL of 10 mmol/L phosphate buffer (pH 7.4) was further added, followed by stirring for 30 seconds. After the mixture was centrifuged with a low-speed centrifuge (2000 rpm×60 min.), the octanol layer and the water layer were sampled each in an amount of 1 mL, and subjected to measurement of radioactivity count with an autowell gamma system (Type: ARC-301B, manufactured by Aloka). Using the obtained radioactivity count, logPoctanol was calculated in accordance with the equation (4).

[7] = target: T2, aggregated Aβ (Aβ1-40) injected into amygdaloid nucleus (Homo sapiens, UniProt P05067); assay: Ex vivo autoradiogram using rats of amyloid injected model (Aβ1-40); assay type: in vivo, male Wistar rat; details: brain slice 60 minutes after tail vein injection
T2 construct: Aβ1-40 (manufactured by Peptide Institute, INC.) was dissolved in phosphate buffer (pH 7.4); purchased Peptide Institute, INC
Procedure: (1) Aβ1-40 (manufactured by Peptide Institute, INC.) was dissolved in phosphate buffer (pH 7.4) and shaken at 37° C. for 72 hours, to obtain a 1 mg/mL suspension of aggregated Aβ (hereinafter referred to as amyloid suspension in this Example).
(2) 2.5 μL (corresponding to […]) of the amyloid suspension was injected into an amygdaloid nucleus on one side of a male Wistar rat (7-week old). As a control, 2.5 μL of a phosphate buffered physiological saline solution (pH 7.4) was injected into an amygdaloid nucleus on the other side of the rat. The rats were examined 1 day after the injection of the amyloid suspension and the phosphate buffered physiological saline solution (pH 7.4).
(3) [^123I]-IMPY was dissolved in a 10 mg/mL ascorbic acid-containing physiological saline solution to obtain a sample solution (29 MBq/mL in radioactivity concentration in the sample solution). This solution was injected under thiopental anesthesia into the rat through the tail vein (dosage: 0.5 mL, dosed radioactivity: 14.5 MBq equivalent).
(4) Brain was removed 60 minutes after the injection to prepare a brain slice of 10 μm in thickness with a microtome (type: CM3050S, manufactured by LEICA). The brain slice was exposed to an imaging plate for 20 hours, and then image analysis was carried out by use of a Bio-imaging Analyzer (type: BAS-2500; manufactured by FUJIFILM Corporation). […]

[8] = Transferability into brain and clearance; assay type: in vivo, male Wistar rats; details: intravenous injection, rats
Procedure: Using Compound 1 (Example 10) and Compound 2 (Example 11), a time course change of radioactive accumulation in brain of male Wistar rats (7-week old) was measured.
A diethyl ether solution of Compound 1 (Example 10) prepared in Example 3, a diethyl ether solution of Compound 2 (Example 11) prepared in Example 6 and a diethyl ether solution of [^123I]-IMPY (Comparative Example 5) prepared in Reference Example 1 were each diluted with 10 mg/mL ascorbic acid-containing physiological saline solution to adjust to a radioactive concentration of 8-12 MBq/mL. 0.05 mL each of the prepared sample solutions was injected under thiopental anesthesia into the tail vein of the rats. The rats were sacrificed by bleeding from abdominal artery, and brains were removed and subjected to measurement of mass of brains and further subjected to measurement of radioactivity (hereinafter referred to as A in this Example) with a single channel analyzer (detector type: SP-20 manufactured by OHYO KOKEN KOGYO Co., Ltd.) 2, 5, 30 and 60 minutes after the injection. Further, the radioactivity level of the rest of the whole body was measured in the same manner as above (hereinafter referred to as B in this Example). Using these measurement results, radioactive distribution per unit weight of brain (% ID/g) at the respective time points were calculated in accordance with the following formula (3).
Three animals were used for the experiment at the respective time points.
Using Compound 4 and Compound 6, a time course change of radioactive accumulation in brain of male Wistar rats (7-week old) was measured.
Compound 4 (Example 22), Compound 6 (Example 23) and a solution of [^123I]-IMPY (Comparative Example 8) prepared above in Reference Example 1 were each diluted with a 10 mg/mL ascorbic acid-containing physiological saline solution to prepare solutions (20-31 MBq/mL in radioactive concentration). 0.05 mL each of the prepared sample solutions was injected under thiopental anesthesia into the tail vein of the respective Wistar rat (7-week old). The rats were sacrificed by bleeding from abdominal artery, and brains were removed and subjected to measurement of mass of brains and further subjected to measurement of radioactivity (hereinafter referred to as A in this Example) with a single channel analyzer (detector type: SP-20 manufactured by OHYO KOKEN KOGYO Co., Ltd.) 2, 5, 30 and 60 minutes after the injection. Further, the radioactivity level of the rest of the whole body was measured in the same manner as above (hereinafter referred to as B in this Example). Using these measurement results, radioactive distribution per unit weight of brain (% ID/g) at the respective time points were calculated in accordance with the following formula (5).

[9] = TA100, without addition of S9mix
[10] = TA98, without addition of S9mix

T1 sequence (P05067 672-713): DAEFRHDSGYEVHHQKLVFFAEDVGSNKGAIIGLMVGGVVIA
T2 sequence (P05067 672-711): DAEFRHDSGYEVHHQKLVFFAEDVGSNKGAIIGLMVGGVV

## CNc1ccc(/C=C/c2ccc(O)cc2)cc1 [SB-13, (E)-4-methylamino-4′-hydroxystilbene]
[1]
  Clearance from normal tissues: it cannot be said that the clearance is sufficiently fast

## OCCCOc1ccc(-c2cn3cc(I)ccc3n2)cc1 [Compound 7, 2-[4′-(3″-hydroxypropoxy)phenyl]-6-iodoimidazo[1,2-a]pyridine]
[2]
  Mutagenicity (in vivo), induction of MNPCE: negative
[3]; TA100, with addition of S9mix
  Mutagenicity: Negative
[3]; [9]
  Mutagenicity: Negative
[4]; TA98, with addition of S9mix
  Mutagenicity: Negative
[4]; [10]
  Mutagenicity: Negative

## OCCOc1ccc(-c2cn3cc(I)ccc3n2)cc1 [Compound 3, 2-[4′-(2″-hydroxyethoxy)phenyl]-6-iodoimidazo[1,2-a]pyridine]
[5]; [^125I]3′-I-BTA-0 400 pmol/L, amyloid 1 μmol/L, 22° C., 3 hours
  IC50: 66.9 nM
[5]; unit inferred
  IC50: < 100 nM
[2]
  Mutagenicity (in vivo), induction of MNPCE: negative
[3]; TA100, with addition of S9mix
  Mutagenicity: Negative
[3]; [9]
  Mutagenicity: Negative
[4]; TA98, with addition of S9mix
  Mutagenicity: Negative
[4]; [10]
  Mutagenicity: Negative

## CN(C)c1ccc(-c2cn3cc([123I])ccc3n2)cc1 [[^123I]-IMPY, reference compound]
[6]; Table 4, Examples 8-9
  logPoctanol value: 1.9
[6]; Table 6, Examples 20-21
  logPoctanol value: 2.1
[7]
  Accumulation of radioactivity in amygdaloid nucleus on the amyloid-injected side: marked accumulation of radioactivity
[8]; After 2 min., Table 5
  Radioactive distribution per unit weight of brain: 1.19 % ID/g
[8]; After 2 min., Table 7
  Radioactive distribution per unit weight of brain: 1.19 % ID/g
[8]; After 5 min., Table 5
  Radioactive distribution per unit weight of brain: 0.97 % ID/g
[8]; After 5 min., Table 7
  Radioactive distribution per unit weight of brain: 0.97 % ID/g
[8]; After 30 min., Table 5
  Radioactive distribution per unit weight of brain: 0.23 % ID/g
[8]; After 30 min., Table 7
  Radioactive distribution per unit weight of brain: 0.23 % ID/g
[8]; After 60 min., Table 5
  Radioactive distribution per unit weight of brain: 0.09 % ID/g
[8]; After 60 min., Table 7
  Radioactive distribution per unit weight of brain: 0.09 % ID/g

— US20100249419A1, “UTILIZATION OF NOVEL COMPOUNDS WITH AMYLOID AFFINITY AND METHOD OF PRODUCING THE SAME” (NIHON MEDI-PHYSICS CO., LTD., priority 2007, published 2010)
